In ChEMBL document CHEMBL3217657, “Rapid assembly of potent type II dehydroquinase inhibitors viaClick chemistry” (Medchemcomm, 2010):

Columns and labels:
[1] = target: T1, 3-dehydroquinate dehydratase (Mycobacterium tuberculosis, UniProt P9WPX7); test: (§1) Competitive reversible inhibition of Mycobacterium tuberculosis type 2 dehydroquinase expressed in Escherichia coli BL21 (DE3) cells assessed as enone-carboxylate chromophore of 3-dehydroshikimate formation using 3-dehydroquinate as substrate preincubated with enzyme for 3 mins prior to substrate addition by UV spectrophotometric assay
T1 sequence (P9WPX7 whole entry): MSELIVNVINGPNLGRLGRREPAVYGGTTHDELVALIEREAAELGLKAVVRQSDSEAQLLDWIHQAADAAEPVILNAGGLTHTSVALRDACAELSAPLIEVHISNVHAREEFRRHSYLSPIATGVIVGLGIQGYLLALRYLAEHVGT

[2] = target: T2, 3-dehydroquinate dehydratase (Streptomyces coelicolor (strain ATCC BAA-471 / A3(2) / M145), UniProt P15474); test: as §1, with “Strepotomyces coelicolor” for “Mycobacterium tuberculosis”
T2 sequence (P15474 whole entry): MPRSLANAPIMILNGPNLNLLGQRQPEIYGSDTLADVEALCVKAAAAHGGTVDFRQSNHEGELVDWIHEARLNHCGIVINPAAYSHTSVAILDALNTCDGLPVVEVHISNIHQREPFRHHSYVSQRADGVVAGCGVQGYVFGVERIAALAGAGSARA

[3] = target: T3, 3-dehydroquinate dehydratase (Helicobacter pylori (strain ATCC 700392 / 26695) (Campylobacterpylori), UniProt Q48255); test: as §1, with “Helicobacter pylori” for “Mycobacterium tuberculosis”
T3 sequence (Q48255 whole entry): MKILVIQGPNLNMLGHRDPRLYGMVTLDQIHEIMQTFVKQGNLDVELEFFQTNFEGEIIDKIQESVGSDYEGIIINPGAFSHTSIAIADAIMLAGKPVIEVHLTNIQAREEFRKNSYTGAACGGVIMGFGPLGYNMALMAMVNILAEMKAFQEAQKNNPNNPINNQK

In the case of `O=C(O)[C@]1(O)C=C(c2cn(-c3ccccc3)nn2)[C@@H](O)[C@H](O)C1`, the Ki [1] is reported as 39 nM, the Ki [2] is reported as 5.7 nM and the Ki [3] is reported as 225 nM.
`O=C(O)[C@]1(O)C=C(c2cn(-c3ccc(F)cc3)nn2)[C@@H](O)[C@H](O)C1` was tested, and the Ki [1] was 154 nM, the Ki [2] was 29 nM and the Ki [3] was 561 nM.
`O=C(O)[C@]1(O)C=C(c2cn(-c3cccc([N+](=O)[O-])c3)nn2)[C@@H](O)[C@H](O)C1` showed a Ki [1] of 230 nM, a Ki [2] of 78 nM and a Ki [3] of 538 nM.
In the case of `O=C(O)c1cccc(-n2cc(C3=C[C@@](O)(C(=O)O)C[C@@H](O)[C@@H]3O)nn2)c1`, the Ki [1] is reported as 3130 nM, the Ki [2] is reported as 1720 nM and the Ki [3] is reported as 5780 nM.
For `O=C(O)[C@]1(O)C=C(c2cn(-c3ccccc3O)nn2)[C@@H](O)[C@H](O)C1`, the Ki [1] was 330 nM, the Ki [2] was 48 nM and the Ki [3] was 157 nM.
`O=C(O)[C@]1(O)C=C(c2cn(-c3cccnc3)nn2)[C@@H](O)[C@H](O)C1` showed a Ki [1] of 136 nM, a Ki [2] of 5.7 nM and a Ki [3] of 375 nM.
`O=C(O)[C@]1(O)C=C(c2cn(Cc3ccco3)nn2)[C@@H](O)[C@H](O)C1` gave a Ki [1] of 2120 nM, a Ki [2] of 217 nM and a Ki [3] of 2200 nM.
In the case of `O=C(O)[C@]1(O)C=C(c2cn(Cc3cccs3)nn2)[C@@H](O)[C@H](O)C1`, the Ki [1] is reported as 1580 nM, the Ki [2] is reported as 73 nM and the Ki [3] is reported as 925 nM.
